This passage reports Kd results from publication PMC10267570, “Characterization of the cholesterol biosynthetic pathway in Dioscorea transversa” (The Journal of Biological Chemistry, 2023).

The target in this assay is T1, CYP51Dt (D. transversa sterol 14α-demethylase).
T1 construct: gene CYP51; C-terminal hexa-histidine tag
Nature of the assay: UV–visible difference spectroscopy titration (type I spectrum) of purified P450; also turnover with CPRDt/NADPH by GC–MS. The format is binding, Dioscorea transversa.

In the case of `CC(C)CCC[C@@H](C)[C@H]1CC[C@@]2(C)C3=C(CC[C@]12C)[C@@]1(C)CC[C@H](O)[C@@H](C)[C@@H]1CC3` [compound 19, 4-desmethyl-24,25-dihydrolanosterol], the dissociation constant Kd – broadly, the free concentration of one partner at which half of the binding sites on the other are occupied at equilibrium, for simple one-to-one binding – was 2400 ± 180 nM.

With `C=C(CC[C@@H](C)[C@H]1CC[C@@]2(C)C3=C(CC[C@]12C)[C@@]1(C)CC[C@H](O)[C@@H](C)[C@@H]1CC3)C(C)C` [compound 7, obtusifoliol], the Kd was 800 ± 250 nM.
